Results published in PubChem BioAssay (NCI).
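Dose response: 5 concentrations. Exposure: 48 h. Format: 96-well plates. Endpoint: linear interpolation; highest concentration if not reached. GI50: concentration for 50% inhibition of growth. TGI: total growth inhibition.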

Experiments:
Experiment in all cases: growth of human tumour cells (NCI), 48 h
MALME-3M melanoma = tested on: MALME-3M melanoma
HCT-116 colon = tested on: HCT-116 colon
CCRF-CEM leukemia = tested on: CCRF-CEM leukemia
UACC-62 melanoma = tested on: UACC-62 melanoma
HCC-2998 colon = tested on: HCC-2998 colon
NCI-H226 lung = tested on: NCI-H226 lung
KM12 colon = tested on: KM12 colon
HCT-15 colon = tested on: HCT-15 colon
TK-10 renal = tested on: TK-10 renal
UACC-257 melanoma = tested on: UACC-257 melanoma

Compound	GI50 (MALME-3M melanoma) [nM]	TGI (MALME-3M melanoma) [nM]	GI50 (HCT-116 colon) [nM]	TGI (HCT-116 colon) [nM]	GI50 (CCRF-CEM leukemia) [nM]	TGI (CCRF-CEM leukemia) [nM]	GI50 (UACC-62 melanoma) [nM]	TGI (UACC-62 melanoma) [nM]	GI50 (HCC-2998 colon) [nM]	TGI (HCC-2998 colon) [nM]	GI50 (NCI-H226 lung) [nM]	TGI (NCI-H226 lung) [nM]	GI50 (KM12 colon) [nM]	TGI (KM12 colon) [nM]	GI50 (HCT-15 colon) [nM]	TGI (HCT-15 colon) [nM]	GI50 (TK-10 renal) [nM]	TGI (TK-10 renal) [nM]	GI50 (UACC-257 melanoma) [nM]	TGI (UACC-257 melanoma) [nM]
COc1cc([C@@H]2c3cc4c(cc3C(O[C@@H]3O[C@@H]5CO[C@@H](c6cccs6)OC5[C@H](O)[C@H]3O)C3COC(=O)[C@@H]32)OCO4)cc(OC)c1O (stereo not given in full)	76.8	1020	72.1	1280	9.41	175	40.9	1100	109	446	22.3	149	118	796	499	19400	118	799	154	2110
N#CCCN(CCC#N)c1ccc(C(=O)NN)cc1		> 100000		> 100000		> 100000		> 100000		> 100000		> 100000		> 100000		> 100000		> 100000		> 100000
O=C(CCCSc1nc(-c2ccc(Cl)cc2)cc(-c2ccc(Cl)cc2)n1)NO	2250	11600	532	17000	517	> 100000	946	3100	2780	10300	2170	11600	1960	11300	385	11900	853	17200	2920	18200
Cn1cc(C2=C(c3cn(CCCN=C(N)N)c4ccccc34)C(=O)NC2=O)c2ccccc21	> 25000	> 25000	> 25000	> 25000	> 25000	> 25000	> 25000	> 25000	> 25000	> 25000	> 25000	> 25000	> 25000	> 25000	> 25000	> 25000	> 25000	> 25000	> 25000	> 25000
C=C1C(=O)O[C@H]2[C@H]1CC/C(COC(=O)/C=C\C(=O)NCc1ccc(Cn3c(=O)sn(-c4ccc(C#N)cc4)c3=O)cc1)=C\CC[C@@]1(C)O[C@@H]21	830	1580	218	956	200	17900	722	1450	901	1760	1360	5630	900	1840	505	1950	888	1610	812	1660
COc1ccc(C(=O)/C=C/c2cccnc2Nc2cc(OC)c(OC)c(OC)c2)cc1	6320	20100	540	2100	711	6150	1710	4380	1350	2850	2510	8860	530	2790	884	3860	1830	5530	3930	15000
CN(C)C(=S)SN(C)C(=O)Nc1ccccc1		50300		> 67400		> 91100		19100		> 62900		> 92400		53800		> 85300		> 100000		> 63100
